{"source": "patent US10093628B2", "about": "“Competitive PPAR-gamma antagonists” (FRAUNHOFER-GESELLSCHAFT ZUR FÖRDERUNG DER ANGEWANDTEN …, priority 2014, dated 2018)", "key": {"[1]": {"biological_target": "T1, PPARγ (Homo sapiens, UniProt P37231)", "T1 sequence (P37231 238-503 limits assumed)": "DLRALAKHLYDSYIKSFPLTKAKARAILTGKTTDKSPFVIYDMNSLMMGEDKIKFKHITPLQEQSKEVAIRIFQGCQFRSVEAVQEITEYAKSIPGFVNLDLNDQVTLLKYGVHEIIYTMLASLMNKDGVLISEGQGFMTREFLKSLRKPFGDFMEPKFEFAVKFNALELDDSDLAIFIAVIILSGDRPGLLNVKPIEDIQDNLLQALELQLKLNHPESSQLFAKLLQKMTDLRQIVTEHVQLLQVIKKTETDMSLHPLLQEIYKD", "assay": "PPARγ-dependent transactivation assay in HEK293T cells", "assay_type": "cell-based", "design": "the vector pFA-PPARγ-LBD-GAL4-DBD encoding the hybrid protein PPARγ-LBD-GAL4-DBD; expressed in transfected cells; host or cells: HEK293T cells; (transient transfection)", "conditions": "for antagonistic effects on the time-course of the response to agonist stimulation: 10 μM compound, 1 μM rosiglitazone; for inhibition of the rosiglitazone-induced transactivation of PPARγ: 1 or 10 μM compound with 0.1-10 μM rosiglitazone", "experimental": "For the PPARγ-dependent transactivation assay, 1×10^4 HEK293T cells per well were seeded in 96-well plates and cultured overnight as described above to allow attachment of the HEK293T cells. The next day, the HEK293T cells were transiently transfected using the JetPRIME™ transfection reagent (PEQLAB Biotechnologie GmbH, Erlangen, Germany), as described by the manufacturer, with 0.01 μg per well pFA-PPARγ-LBD-GAL4-DBD, kindly provided by Prof. Dr. Manfred Schubert-Zsilavecz (Institute of Pharmaceutical Chemistry, Department of Biochemistry, Chemistry and Pharmacy, Goethe-University Frankfurt am Main, Germany), 0.09 μg per well pFR-Luc (Stratagene, La Jolla, USA) and 0.0005 μg per well pRL-CMV (Promega GmbH, Mannheim, Germany). After 4 h, the transfection medium was replaced and the HEK293T cells were cultured in fresh growth medium for another 24 h. For the transient transfection of 1×10^6 HuT-78 cells and Jurkat T cells per well, the SuperFect™ transfection reagent (QIAGEN GmbH, Hilden, Germany) was used as described by the producer with 0.2 μg per well pFA-PPARγ-LBD-GAL4-DBD, 0.8 μg per well pFR-Luc and 0.05 μg per well pRL-CMV. After 24 h, 1 ml fresh growth medium was added and the cells were cultured for another 48 h. The PPARγ-dependent transactivation assay in HEK293T cells using a 96-well plate format was performed in quadruple and in HuT-78 cells and Jurkat T cells using a 12-well plate format in triplicate.\n(§1) The PPARγ-dependent transactivation assay is based on the vector pFA-PPARγ-LBD-GAL4-DBD encoding the hybrid protein PPARγ-LBD-GAL4-DBD and the reporter vector pFR-Luc, carrying a GAL4-responsive element in front of the Firefly luciferase gene. These two vectors were co-transfected, as described above, in combination with the control vector pRL-CMV, encoding Renilla luciferase, to normalize Firefly luciferase activity for transfection efficiency. […] Transactivation was analysed using a 96-well plate format in a Mithras LB940 multimode reader (Berthold Technologies, Bad Wildbad, Germany). The IC50 value for MTTB was determined by fitting the data to a sigmoidal dose-response curve using the GraphPad Software Prism (La Jolla, USA).\nFirefly luciferase luminescence values and control Renilla luciferase luminescence values were determined in each sample. The ratios of Firefly to Renilla luciferase luminescence were used to normalize luciferase activity values."}, "[2]": {"biological_target": "T1, PPARγ", "assay": "PPARγ-dependent transactivation assay in Jurkat T cells", "assay_type": "cell-based", "design": "the vector pFA-PPARγ-LBD-GAL4-DBD encoding the hybrid protein PPARγ-LBD-GAL4-DBD; expressed in transfected cells; host or cells: HEK293T cells; Jurkat T cells (transient transfection)", "conditions": "for inhibition of the rosiglitazone-induced transactivation of PPARγ / agonistic effects (transactivation of PPARγ by the compound alone): 24 h; for inhibition of the rosiglitazone-induced transactivation of PPARγ: 1 or 10 μM compound with 0.1-10 μM rosiglitazone", "experimental": "as §1, with “Dr. […] Schubert-Zsilavecz (Institute of Pharmaceutical Chemistry, Department of Biochemistry, Chemistry and Pharmacy, Goethe-University Frankfurt am Main, Germany), 0.09 μg per well pFR-Luc (Stratagene, La Jolla, USA) and 0.0005 μg per well pRL-CMV (Promega GmbH, Mannheim, Germany). After 4 h, the transfection medium was replaced and the HEK293T cells were cultured in fresh growth medium for another 24 h. […] After 24 h, 1 ml fresh growth medium was added and the cells were cultured for another 48 h. The PPARγ-dependent transactivation assay in HEK293T cells using a 96-well plate format was performed in quadruple and in HuT-78 cells and Jurkat T cells using a 12-well plate format in triplicate. The PPARγ-dependent” for “The PPARγ-dependent”"}, "[3]": {"test_system": "HuT-78 cells", "assay": "Intracellular accumulation by LC-MS/MS, HuT-78 cells", "assay_type": "in vitro ADME, human", "source_text": "(§2) Accumulation was expressed as a percentage of the ratio of intracellular to extracellular concentration (I/E)."}, "[4]": {"test_system": "Jurkat T cells", "assay": "Cell viability, MTT assay, Jurkat T cells", "assay_type": "cell-based", "experimental": "(§3) HuT-78 cells, Jurkat T cells and HEK293T cells, were seeded in 96-well plates at a density of 5×10^4 cells per well and cultured overnight as described above to allow attachment of the HEK293T cells. […] As control, DMSO alone was used. After 24 h stimulation, 3-(4, 5-dimethylthiazol-2-yl)-2, 5-diphenyltetrazolium bromide (MTT) solution (5 mg ml-1 in phosphate buffered saline (PBS)) was added and the cells were incubated for two more hours at 37° C. (Mosmann, 1983). Afterwards, the cells were lysed with MTT lysis buffer. Following cell lysis, cell viability was measured at an absorbance of 560 nm in a Mithras LB940 multimode reader. The cell viability studies using a 96-well plate format were performed in octet."}, "[5]": {"test_system": "HEK293T cells", "assay": "Cell viability, MTT assay, HEK293T cells", "assay_type": "cell-based, human", "conditions": "24 h", "experimental": "as §3"}, "[6]": {"test_system": "HEK293T cells", "assay": "Intracellular accumulation by LC-MS/MS, HEK293T cells", "assay_type": "in vitro ADME, human", "source_text": "as §2"}, "[7]": {"test_system": "HuT-78 cells", "assay": "Cell viability, MTT assay, HuT-78 cells", "assay_type": "cell-based, human", "experimental": "as §3"}, "[8]": {"test_system": "Jurkat T cells", "assay": "Intracellular accumulation by LC-MS/MS, Jurkat T cells", "assay_type": "in vitro ADME", "source_text": "as §2"}, "[9]": {"conditions": "HEK293T cells, 24 h, compound alone"}}}
{"compound": "CC(C)C[C@H](NC(=O)OCC1c2ccccc2-c2ccccc21)C(=O)O", "note": "[FMOC-L-leucine, N-(9-fluorenylmethoxycarbonyl)-L-leucine]", "values": [{"measurement": "antagonistic effects on the time-course of the response to agonist stimulation", "setting": "[1]; HEK293T cells", "result": "non-existent antagonistic effects"}, {"measurement": "agonistic effects (transactivation of PPARγ by the compound alone)", "setting": "[1]; [9]", "result": "no agonistic effects"}]}
{"compound": "O=C(Nc1ccccc1)c1cc([N+](=O)[O-])ccc1Cl", "note": "[GW9662, 2-chloro-5-nitrobenzanilide]", "values": [{"measurement": "inhibition of the rosiglitazone-induced transactivation of PPARγ", "setting": "[2]", "result": "full antagonism"}, {"measurement": "agonistic effects (transactivation of PPARγ by the compound alone)", "setting": "[2]; compound alone", "result": "surprisingly high agonistic effects"}, {"measurement": "PPARγ transactivation by the compound alone", "setting": "[2]; compound alone, dose-independent", "result": "approximately 3 fold"}, {"measurement": "intracellular accumulation, fold less than that of MTTB", "setting": "[3]; 10 μM", "result": "about 100 fold"}, {"measurement": "concentrations at which clearly cytotoxic", "setting": "[4]; MTT, 24 h", "result": "> 30", "unit": "µM"}, {"measurement": "concentrations without cytotoxic effects / loss of viability", "setting": "[5]", "result": "≤ 30", "unit": "µM"}, {"measurement": "intracellular accumulation, fold lower compared to MTTB", "setting": "[6]; 10 μM", "result": 10, "unit": "fold"}, {"measurement": "concentrations at which clearly cytotoxic", "setting": "[7]; MTT, 24 h", "result": "above 20 μM"}, {"measurement": "intracellular accumulation, fold less than that of MTTB", "setting": "[8]; 10 μM", "result": "about 100 fold"}, {"measurement": "antagonistic effects on the time-course of the response to agonist stimulation", "setting": "[1]; HEK293T cells", "result": "inhibited the time-course of the response to agonist"}, {"measurement": "inhibition of the rosiglitazone-induced transactivation of PPARγ", "setting": "[1]; HEK293T cells, 24 h", "result": "full antagonism"}, {"measurement": "agonistic effects (transactivation of PPARγ by the compound alone)", "setting": "[1]; [9]", "result": "surprisingly high agonistic effects"}]}
{"compound": "O=C1NC(=O)C(Cc2ccc3cc(OCc4ccccc4F)ccc3c2)S1", "note": "(centres unmarked) [MCC-555, netoglitazone]", "values": [{"measurement": "antagonistic effects on the time-course of the response to agonist stimulation", "setting": "[1]; HEK293T cells", "result": "non-existent antagonistic effects"}, {"measurement": "concentrations that transactivated PPARγ", "setting": "[1]; [9]", "result": "above 1 μM"}]}
{"compound": "CCCC/C(=C\\c1cc(OCc2ccc3nc(C(F)(F)F)cc(OC)c3c2)ccc1OCc1ccc(C(F)(F)F)cc1)C(=O)O", "note": "[MTTB, (E)-2-(5-((4-methoxy-2-(trifluoromethyl)quinolin-6-yl)methoxy)-2-((4-(trifluoromethyl)benzyl)oxy)-benzylidene) hexanoic acid]", "values": [{"measurement": "inhibition of the rosiglitazone-induced transactivation of PPARγ", "setting": "[2]", "result": "dose-dependent inhibition"}, {"measurement": "agonistic effects (transactivation of PPARγ by the compound alone)", "setting": "[2]; compound alone", "result": "no agonistic effect"}, {"measurement": "intracellular accumulation, fold higher as compared to GW9662", "setting": "[3]", "result": "approximately 100 fold"}, {"measurement": "intracellular accumulation (intracellular as percentage of extracellular concentration)", "setting": "[3]; 10 μM, after 24 h", "result": "approximately 10%"}, {"measurement": "cytotoxicity in contrast to GW9662", "setting": "[4]", "result": "less cytotoxicity"}, {"measurement": "concentrations without cytotoxic effects", "setting": "[4]; MTT, 24 h", "result": "up to 10 μM"}, {"measurement": "concentrations without cytotoxic effects / loss of viability", "setting": "[5]", "result": "up to 10 μM"}, {"measurement": "uptake, fold higher than of GW9662", "setting": "[6]", "result": 10, "unit": "fold"}, {"measurement": "intracellular accumulation (intracellular as percentage of extracellular concentration)", "setting": "[6]; 10 μM, after 24 h", "result": "approximately 25%"}, {"measurement": "cytotoxicity in contrast to GW9662", "setting": "[7]", "result": "less cytotoxicity"}, {"measurement": "concentrations without cytotoxic effects", "setting": "[7]; MTT, 24 h", "result": "up to 10 μM"}, {"measurement": "intracellular accumulation, fold higher as compared to GW9662", "setting": "[8]", "result": "approximately 100 fold"}, {"measurement": "intracellular accumulation (intracellular as percentage of extracellular concentration)", "setting": "[8]; 10 μM, after 24 h", "result": "approximately 10%"}, {"measurement": "IC50", "setting": "[1]", "result": 4.3, "unit": "µM"}, {"measurement": "inhibition of the rosiglitazone-induced transactivation of PPARγ", "setting": "[1]; HEK293T cells, 24 h", "result": "dose-dependent inhibition"}, {"measurement": "agonistic effects (transactivation of PPARγ by the compound alone)", "setting": "[1]; [9]", "result": "no agonistic effect"}]}
